Source: the NIST ThermoML archive (doi:10.1016/j.jct.2017.08.004)
“And” between values parts separate entries of the source, which are not always exact repeats. Equal values may be shown once.

Assay: molar heat capacity at constant pressure
Settings: 101.33 kPa, Crystal

OC[C@@H](O)[C@H](O)[C@@H](O)CO [xylitol]
Settings | molar heat capacity at constant pressure
1 K, relaxation calorimetry | 0.0008271 J/K/mol
1.922 K, relaxation calorimetry | 0.005594 J/K/mol
2 K, relaxation calorimetry | 0.006331 J/K/mol
2.139 K, relaxation calorimetry | 0.007737 J/K/mol
2.374 K, relaxation calorimetry | 0.01068 J/K/mol
2.635 K, relaxation calorimetry | 0.0145 J/K/mol
2.93 K, relaxation calorimetry | 0.02028 J/K/mol
3 K, relaxation calorimetry | 0.02164 J/K/mol
3.25 K, relaxation calorimetry | 0.02792 J/K/mol
3.603 K, relaxation calorimetry | 0.03808 J/K/mol
4 K, relaxation calorimetry | 0.05265 J/K/mol and 0.05269 J/K/mol
4.437 K, relaxation calorimetry | 0.07193 J/K/mol
4.924 K, relaxation calorimetry | 0.1019 J/K/mol
5 K, relaxation calorimetry | 0.1065 J/K/mol
5.466 K, relaxation calorimetry | 0.1404 J/K/mol
6 K, relaxation calorimetry | 0.191 J/K/mol
6.063 K, relaxation calorimetry | 0.1974 J/K/mol
6.726 K, relaxation calorimetry | 0.2771 J/K/mol
7 K, relaxation calorimetry | 0.3152 J/K/mol
7.46 K, relaxation calorimetry | 0.3882 J/K/mol
8 K, relaxation calorimetry | 0.4898 J/K/mol
8.276 K, relaxation calorimetry | 0.5472 J/K/mol
9 K, relaxation calorimetry | 0.7186 J/K/mol
9.181 K, relaxation calorimetry | 0.7649 J/K/mol
10 K, relaxation calorimetry | 1.004 J/K/mol
10.2 K, relaxation calorimetry | 1.063 J/K/mol
11.29 K, relaxation calorimetry | 1.456 J/K/mol
12.52 K, relaxation calorimetry | 1.978 J/K/mol
13.9 K, relaxation calorimetry | 2.652 J/K/mol
15 K, relaxation calorimetry | 3.243 J/K/mol
15.43 K, relaxation calorimetry | 3.486 J/K/mol
17.11 K, relaxation calorimetry | 4.536 J/K/mol
19 K, relaxation calorimetry | 5.817 J/K/mol
20 K, relaxation calorimetry | 6.537 J/K/mol
21.08 K, relaxation calorimetry | 7.334 J/K/mol
23.4 K, relaxation calorimetry | 9.137 J/K/mol
25 K, relaxation calorimetry | 10.45 J/K/mol
25.98 K, relaxation calorimetry | 11.24 J/K/mol
28.85 K, relaxation calorimetry | 13.71 J/K/mol
30 K, relaxation calorimetry | 14.71 J/K/mol
32.02 K, relaxation calorimetry | 16.53 J/K/mol
35 K, relaxation calorimetry | 19.23 J/K/mol
35.54 K, relaxation calorimetry | 19.78 J/K/mol
39.45 K, relaxation calorimetry | 23.43 J/K/mol
40 K, relaxation calorimetry | 23.95 J/K/mol
43.77 K, relaxation calorimetry | 27.59 J/K/mol
45 K, relaxation calorimetry | 28.76 J/K/mol
48.58 K, relaxation calorimetry | 32.08 J/K/mol
50 K, relaxation calorimetry | 33.53 J/K/mol
53.91 K, relaxation calorimetry | 37.13 J/K/mol
55 K, relaxation calorimetry | 38.17 J/K/mol
59.82 K, relaxation calorimetry | 42.74 J/K/mol
60 K, relaxation calorimetry | 42.76 J/K/mol
65 K, relaxation calorimetry | 47.51 J/K/mol
66.39 K, relaxation calorimetry | 48.78 J/K/mol
70 K, relaxation calorimetry | 52.03 J/K/mol
73.7 K, relaxation calorimetry | 55.27 J/K/mol
75 K, relaxation calorimetry | 56.38 J/K/mol
80 K, relaxation calorimetry | 60.61 J/K/mol
81.8 K, relaxation calorimetry | 62.47 J/K/mol
85 K, relaxation calorimetry | 64.74 J/K/mol
90 K, relaxation calorimetry | 68.78 J/K/mol
90.79 K, relaxation calorimetry | 69.45 J/K/mol
95 K, relaxation calorimetry | 72.72 J/K/mol
100 K, relaxation calorimetry | 76.57 J/K/mol
100.73 K, relaxation calorimetry | 76.61 J/K/mol
110 K, relaxation calorimetry | 84.01 J/K/mol
110.86 K, relaxation calorimetry | 84.59 J/K/mol
120 K, relaxation calorimetry | 91.15 J/K/mol
120.92 K, relaxation calorimetry | 91.94 J/K/mol
130 K, relaxation calorimetry | 98.03 J/K/mol
130.99 K, relaxation calorimetry | 98.86 J/K/mol
140 K, relaxation calorimetry | 104.68 J/K/mol
141.06 K, relaxation calorimetry | 105.29 J/K/mol
150 K, relaxation calorimetry | 111.17 J/K/mol
151.18 K, relaxation calorimetry | 112.01 J/K/mol
160 K, relaxation calorimetry | 117.52 J/K/mol
161.27 K, relaxation calorimetry | 118.23 J/K/mol
170 K, relaxation calorimetry | 123.79 J/K/mol
171.37 K, relaxation calorimetry | 124.62 J/K/mol
180 K, relaxation calorimetry | 130 J/K/mol
181.44 K, relaxation calorimetry | 131.13 J/K/mol
188.15 K, Small sample (50 mg) DSC | 129.73 J/K/mol
189.15 K, Small sample (50 mg) DSC | 130.13 J/K/mol
190 K, relaxation calorimetry | 136.19 J/K/mol
